Laboratory results from EP4610269A1, “UROKINASE PLASMINOGEN ACTIVATOR SURFACE RECEPTOR (UPAR) LIGANDS FOR DIAGNOSTIC OR THERAPEUTIC USE” (3B Pharmaceuticals GmbH, priority 2024, dated 2025).
Where a SMILES comes first, the peptide text is derived from it. Bridges are numbered along the chain shown (N, C = ends). [ ]: non-standard residue; d: D form. The star is where a group is joined. DOTA = O=C(O)CN1CCN(CC(=O)O)CCN(CC(=O)*)CCN(CC(=O)O)CC1; Pro(trans-4-F) = O=C(O)[C@@H]1C[C@@H](F)CN1; Hyp = O=C(O)[C@@H]1C[C@@H](O)CN1; hPhe = N[C@@H](CCc1ccccc1)C(=O)O; Pentanoyl(4-Me) = CC(C)CCC(=O)*; Cit = NC(=O)NCCC[C@H](N)C(=O)O; Propanoyl(3-OEt) = CCOCCC(=O)*; NMeK = CN[C@@H](CCCCN)C(=O)O; Nva = CCC[C@H](N)C(=O)O; Deg = CCC(N)(CC)C(=O)O; Pentanoyl = CCCCC(=O)*; Sar = CNCC(=O)O

Experiments:
[1] = target: T1, uPAR-expressing HEC-265 human endometrial adenocarcinoma cells (Homo sapiens, UniProt Q03405); test: Competitive FACS binding assay; conditions: pIC50 category of FACS binding
T1 construct: Cell surface uPAR-expressing HEC-265 human endometrial adenocarcinoma cells; host or cells: HEC-265
T1 sequence (Q03405 23-335): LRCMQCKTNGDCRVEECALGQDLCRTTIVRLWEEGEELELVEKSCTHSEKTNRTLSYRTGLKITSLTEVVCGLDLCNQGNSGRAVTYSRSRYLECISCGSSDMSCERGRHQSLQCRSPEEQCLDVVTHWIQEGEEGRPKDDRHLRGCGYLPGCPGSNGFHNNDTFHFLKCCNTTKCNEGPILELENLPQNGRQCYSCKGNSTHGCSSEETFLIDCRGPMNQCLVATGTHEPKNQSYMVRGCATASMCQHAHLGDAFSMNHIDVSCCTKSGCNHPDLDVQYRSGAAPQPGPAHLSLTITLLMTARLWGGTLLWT
Method in brief: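 HEC-265 cells incubated 1 h at 4 °C with 10 nM biotinylated uPAR peptide tracer plus increasing test compound, then stained with APC-streptavidin on ice. Median APC fluorescence by flow cytometry; 4PL fit gives pIC50.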

human uPAR (uPAR-Fc) = target: T2, human uPAR (uPAR-Fc) (Homo sapiens, UniProt Q03405); test: Surface plasmon resonance (SPR) assay, single cycle kinetics; format: binding; conditions: pKD category for uPAR SPR activity assay; uPAR-Fc on Protein A-Chip, 25°C; read-out: pKD CAT (converted)
T2 construct: comprising amino acids Leu23-Arg303 according to UniProt entry Q03405.1; purchased R&D Systems 10378-UK-100
T2 sequence (Q03405 23-303): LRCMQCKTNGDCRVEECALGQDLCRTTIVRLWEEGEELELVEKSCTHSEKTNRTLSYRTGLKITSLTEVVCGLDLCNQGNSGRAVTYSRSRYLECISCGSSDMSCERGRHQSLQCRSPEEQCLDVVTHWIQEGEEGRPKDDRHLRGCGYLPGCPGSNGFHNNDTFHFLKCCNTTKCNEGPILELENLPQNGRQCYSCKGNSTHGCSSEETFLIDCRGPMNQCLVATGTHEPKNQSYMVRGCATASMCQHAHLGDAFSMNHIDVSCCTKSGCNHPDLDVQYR
Method in brief: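 uPAR-Fc (Leu23-Arg303 extracellular domains, human IgG1 Fc) captured on Protein A chip to ~2000 RU; single-cycle kinetics at 25°C in HEPES running buffer pH 7.4 with 0.1% DMSO. KD from double-referenced sensorgrams fitted to 1:1 Langmuir model, reported as pKD.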

Row | Compound | IC50 [1] [nM] | Kd (human uPAR (uPAR-Fc)) [nM]
1 | CC[C@H](C)[C@@H]1NC(=O)[C@@H](C)NC(=O)[C@@H]2CCCN2C(=O)[C@H](Cc2ccccc2)NC(=O)[C@H](Cc2ccc(O)cc2)NC(=O)[C@H](CCC(N)=O)NC(=O)[C@H](C)NC(=O)[C@@H](NC(=O)CCC(C)C)CSSC[C@@H](C(N)=O)NC(=O)[C@H](CC(C)C)NC1=O [UPAR-168, iHex-[Cys-Ala-Gln-Tyr-Phe-Pro-ala-Ile-Leu-Cys]-NH2] ({Pentanoyl(4-Me)}-CAQYFP[dA]ILC-NH2; disulfide 1-10) | ≤ 10 | < 1.58
2 | CCCCC(=O)N[C@H]1CSSC[C@@H](C(N)=O)NC(=O)[C@H](Cc2ccccc2)NC(=O)[C@H]([C@@H](C)CC)NC(=O)[C@@H]2C[C@@H](O)CN2C(=O)[C@@H]2CCCN2C(=O)[C@H](Cc2ccccc2)NC(=O)[C@H](Cc2ccc(O)cc2)NC(=O)[C@H](CCC(N)=O)NC(=O)[C@H](CCCNC(=N)N)NC1=O [UPAR-171, Pent-[Cys-Arg-Gln-Tyr-Phe-Pro-Hyp-Ile-Phe-Cys]-NH2] (Pentanoyl-CRQYFP[Hyp]IFC-NH2; disulfide 1-10) | 12.6 to 31.6 | 1.58 to 10
3 | CCOCCC(=O)N[C@H]1CSSC[C@@H](C(N)=O)NC(=O)[C@H](CC(C)C)NC(=O)[C@H]([C@@H](C)CC)NC(=O)[C@@H](C)NC(=O)[C@@H]2CCCN2C(=O)[C@H](Cc2ccccc2)NC(=O)[C@H](Cc2ccc(O)cc2)NC(=O)[C@H](CCC(N)=O)NC(=O)[C@H](CCCNC(N)=O)NC1=O [UPAR-172, EtOPr-[Cys-Cit-Gln-Tyr-Phe-Pro-ala-Ile-Leu-Cys]-NH2] ({Propanoyl(3-OEt)}-C[Cit]QYFP[dA]ILC-NH2; disulfide 1-10) | ≤ 10 | 1.58 to 10
4 | CCCCC(=O)N[C@H]1CSSC[C@@H](C(N)=O)NC(=O)[C@H](CCC)NC(=O)[C@H]([C@@H](C)CC)NC(=O)[C@H](CCCCN)N(C)C(=O)[C@@H]2CCCN2C(=O)[C@H](Cc2ccccc2)NC(=O)[C@H](Cc2ccc(O)cc2)NC(=O)[C@H](CCCCNC(=O)CN2CCN(CC(=O)O)CCN(CC(=O)O)CCN(CC(=O)O)CC2)NC(=O)[C@H](CCCNC(N)=O)NC1=O [UPAR-173, Pent-[Cys-Cit-Lys(DOTA)-Tyr-Phe-Pro-Nmk-Ile-Nva-Cys]-NH2] (Pentanoyl-C[Cit]K(DOTA)YFP[NMeK]I[Nva]C-NH2; disulfide 1-10) | ≥ 126 | > 100
5 | CCCCC(=O)N[C@H]1CSSC[C@@H](C(N)=O)NC(=O)[C@H](CCC)NC(=O)[C@H]([C@@H](C)CC)NC(=O)CN(C)C(=O)[C@@H]2CCCN2C(=O)[C@H](Cc2ccccc2)NC(=O)[C@H](Cc2ccc(O)cc2)NC(=O)[C@H](CCCCNC(=O)CN2CCN(CC(=O)O)CCN(CC(=O)O)CCN(CC(=O)O)CC2)NC(=O)[C@H](CCCNC(N)=O)NC1=O [UPAR-177, Pent-[Cys-Cit-Lys(DOTA)-Tyr-Phe-Pro-Nmg-Ile-Nva-Cys]-NH2] (Pentanoyl-C[Cit]K(DOTA)YFP[Sar]I[Nva]C-NH2; disulfide 1-10) | ≤ 10 | 1.58 to 10
6 | CC[C@H](C)[C@@H]1NC(=O)[C@@H](C)NC(=O)[C@@H]2C[C@@H](F)CN2C(=O)[C@H](Cc2ccccc2)NC(=O)[C@H](Cc2ccc(O)cc2)NC(=O)[C@H](CCC(N)=O)NC(=O)[C@H](CCCNC(N)=O)NC(=O)[C@@H](NC(=O)CCC(C)C)CSSC[C@@H](C(N)=O)NC(=O)[C@H](CC(C)C)NC1=O [UPAR-178, iHex-[Cys-Cit-Gln-Tyr-Phe-4Tfp-ala-Ile-Leu-Cys]-NH2] ({Pentanoyl(4-Me)}-C[Cit]QYF[Pro(trans-4-F)][dA]ILC-NH2; disulfide 1-10) | ≤ 10 | 1.58 to 10
7 | CCCCC(=O)N[C@H]1CSSC[C@@H](C(N)=O)NC(=O)[C@H](CCC)NC(=O)C(CC)(CC)NC(=O)[C@@H]2C[C@@H](O)CN2C(=O)[C@@H]2CCCN2C(=O)[C@H](Cc2ccccc2)NC(=O)[C@H](Cc2ccc(O)cc2)NC(=O)[C@H](CCC(N)=O)NC(=O)[C@H](CCCNC(=N)N)NC1=O [UPAR-179, Pent-[Cys-Arg-Gln-Tyr-Phe-Pro-Hyp-Deg-Nva-Cys]-NH2] (Pentanoyl-CRQYFP[Hyp][Deg][Nva]C-NH2; disulfide 1-10) | ≥ 126 | > 100
8 | CC[C@H](C)[C@@H]1NC(=O)[C@@H](C)NC(=O)[C@@H]2CCCN2C(=O)[C@H](CCc2ccccc2)NC(=O)[C@H](Cc2ccc(O)cc2)NC(=O)[C@H](CCC(N)=O)NC(=O)[C@H](CCCNC(N)=O)NC(=O)[C@@H](NC(=O)CCC(C)C)CSSC[C@@H](C(N)=O)NC(=O)[C@H](CC(C)C)NC1=O [UPAR-180, iHex-[Cys-Cit-Gln-Tyr-Hfe-Pro-ala-Ile-Leu-Cys]-NH2] ({Pentanoyl(4-Me)}-C[Cit]QY[hPhe]P[dA]ILC-NH2; disulfide 1-10) | ≥ 126 | > 100
